Results published in US9505768B2, “Compositions and methods for modulating TLR4” (The Regents of the University of California, priority 2012, dated 2016).
“Also recorded” adds a separate entry of the source. Read-outs that look alike come from different tables or passages of the source.

Key:
[1] = system: mouse bone marrow derived dendritic cells (mBMDC); assay: IL-6 induction in mouse bone marrow derived dendritic cells (ELISA); format: cell-based
[2] = system: mouse bone marrow derived dendritic cells (mBMDC); assay: IP-10 induction in mBMDC (ELISA), surrogate marker of type I IFN; format: cell-based
[3] = system: human peripheral blood mononuclear cells (hPBMC); assay: IL-8 release from human PBMC (ELISA); format: cell-based; settings: compound 1 10 μM
Procedure: Human PBMC were isolated from buffy coats obtained from the San Diego Blood Bank (San Diego, Calif.) as described previously. […] The levels of IL-8 in the supernatants were determined by ELISA (BD Biosciences, La Jolla, Calif.). Human cell cultures were treated with 10 ng/mL LPS as the positive control.

mouse TLR4 = molecular target: T1, mouse TLR4 (Mus musculus, UniProt Q9JHF9+Q9QUK6); assay: Murine TLR4 HEK Blue NFκB/SEAP reporter assay; format: cell-based; settings: for mouse TLR4, area under curve (AUC) values normalized to Cmpd 1: mTLR4 HEK transfectoma, 312 nM to 10 μM, Cmpd 1 set at 100
T1 construct: host or cells: HEK293 (HEK Blue) cells with NFκB/SEAP reporter
T1 sequence (Q9QUK6 26-835): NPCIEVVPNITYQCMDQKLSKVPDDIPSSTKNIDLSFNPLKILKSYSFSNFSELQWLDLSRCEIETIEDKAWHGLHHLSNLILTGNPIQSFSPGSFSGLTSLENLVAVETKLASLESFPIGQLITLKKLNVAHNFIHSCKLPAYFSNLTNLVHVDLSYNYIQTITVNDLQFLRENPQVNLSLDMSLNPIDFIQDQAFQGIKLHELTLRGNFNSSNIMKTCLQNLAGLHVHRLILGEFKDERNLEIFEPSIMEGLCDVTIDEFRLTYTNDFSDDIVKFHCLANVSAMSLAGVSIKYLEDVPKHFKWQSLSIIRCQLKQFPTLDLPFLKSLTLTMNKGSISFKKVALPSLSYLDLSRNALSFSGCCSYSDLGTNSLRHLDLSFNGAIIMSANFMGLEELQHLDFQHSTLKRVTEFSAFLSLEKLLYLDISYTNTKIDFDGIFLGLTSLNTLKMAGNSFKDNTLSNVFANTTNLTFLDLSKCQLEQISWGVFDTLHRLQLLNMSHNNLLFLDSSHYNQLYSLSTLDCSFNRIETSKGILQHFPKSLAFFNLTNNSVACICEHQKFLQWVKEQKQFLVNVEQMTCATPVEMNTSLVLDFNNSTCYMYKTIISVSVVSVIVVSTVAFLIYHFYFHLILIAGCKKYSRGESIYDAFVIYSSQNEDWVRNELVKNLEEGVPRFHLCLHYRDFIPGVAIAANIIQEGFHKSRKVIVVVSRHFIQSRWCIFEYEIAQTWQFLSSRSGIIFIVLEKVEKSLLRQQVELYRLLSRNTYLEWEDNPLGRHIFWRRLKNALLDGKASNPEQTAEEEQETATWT
T1 sequence (Q9JHF9 19-160): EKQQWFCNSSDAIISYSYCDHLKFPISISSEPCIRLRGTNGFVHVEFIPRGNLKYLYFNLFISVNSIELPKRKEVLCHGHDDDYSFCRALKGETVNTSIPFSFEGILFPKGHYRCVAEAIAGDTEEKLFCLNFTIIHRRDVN
Procedure: (§1) The above assays were utilized to compare the derivatives of the lead pyrimidoindole for their ability to activate mouse and human TLR4. […] Each cytokine induction curve was first converted to a percent activity curve, and then the AUC of the percent activity curve was calculated. The process of converting to a percent activity curve allowed subtracting background and adjusting for plate-to-plate variation.
(§2) The culture supernatants were harvested after a 20-24 h incubation period. SEAP activity in the supernatants was determined by a colorimetric assay, using either the SEAPorter Assay Kit (Imgenex), with absorbance read at 405 nm, or QuantiBlue (Invivogen), with absorbance read at 630 nm.

human TLR4 = molecular target: T2, human TLR4 (Homo sapiens, UniProt O00206+Q9Y6Y9); assay: Human TLR4 HEK Blue NFκB/SEAP reporter assay; format: cell-based; settings: for human TLR4, values normalized to Cmpd 1: hTLR4 HEK293 transfectoma, all compounds tested at 10 μM, Cmpd 1 set at 100
T2 construct: host or cells: HEK293 (HEK Blue) cells with NFκB/SEAP reporter
T2 sequence (O00206 24-839): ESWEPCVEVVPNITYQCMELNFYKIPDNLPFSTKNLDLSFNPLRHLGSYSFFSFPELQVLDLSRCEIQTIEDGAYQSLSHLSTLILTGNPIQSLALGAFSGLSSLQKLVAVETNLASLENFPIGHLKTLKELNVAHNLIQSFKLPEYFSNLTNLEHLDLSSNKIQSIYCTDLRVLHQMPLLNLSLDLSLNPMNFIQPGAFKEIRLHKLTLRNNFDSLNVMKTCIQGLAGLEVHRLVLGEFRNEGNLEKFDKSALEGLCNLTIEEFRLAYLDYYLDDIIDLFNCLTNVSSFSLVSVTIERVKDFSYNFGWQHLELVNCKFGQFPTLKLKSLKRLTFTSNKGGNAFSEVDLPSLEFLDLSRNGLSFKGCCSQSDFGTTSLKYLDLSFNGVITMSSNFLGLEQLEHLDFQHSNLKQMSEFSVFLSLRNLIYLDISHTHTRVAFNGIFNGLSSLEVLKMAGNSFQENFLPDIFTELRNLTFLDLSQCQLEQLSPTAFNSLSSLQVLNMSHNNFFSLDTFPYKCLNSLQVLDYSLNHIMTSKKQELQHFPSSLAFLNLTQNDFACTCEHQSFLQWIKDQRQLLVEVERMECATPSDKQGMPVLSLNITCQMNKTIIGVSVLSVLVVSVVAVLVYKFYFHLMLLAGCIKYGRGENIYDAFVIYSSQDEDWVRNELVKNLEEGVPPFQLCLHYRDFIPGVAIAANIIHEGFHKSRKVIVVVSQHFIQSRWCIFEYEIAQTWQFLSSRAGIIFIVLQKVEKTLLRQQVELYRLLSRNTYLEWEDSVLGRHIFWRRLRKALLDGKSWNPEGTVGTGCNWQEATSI
T2 sequence (Q9Y6Y9 19-160): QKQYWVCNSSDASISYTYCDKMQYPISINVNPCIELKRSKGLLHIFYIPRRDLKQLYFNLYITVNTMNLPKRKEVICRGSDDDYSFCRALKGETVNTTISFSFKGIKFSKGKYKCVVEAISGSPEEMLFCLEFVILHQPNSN
Procedure: as §1, §2

[4] = system: mouse bone marrow derived dendritic cells (mBMDC); assay: IL-6 induction in mouse bone marrow derived dendritic cells (ELISA); format: cell-based; settings: relative to Cmpd 1 / within series
Procedure: as §1
(§3) BMDC were prepared from C57BL/6 mice as described. See e.g., Wu, C. […] BMDC (10^5 cells per well) were plated in 96-well plates in 200 μL of complete RPMI1640 supplemented with 10% fetal calf serum (FCS; Sigma Aldrich), 100 U/mL penicillin, and 100 μg/mL streptomycin (Invitrogen). […] After 18 h incubation, the cell culture supernatants were collected. LPS (purified LPS, Invivogen, San Diego, Calif.) or MPLA (1 μg/mL synthetic MPLA, Invivogen, San Diego, Calif.) were used as positive controls. […] The AUC was calculated from BMDC dose-response curves using Prism 5 (GraphPad, San Diego). Each cytokine induction curve was first converted to a percent activity curve, and then the AUC of the percent activity curve was calculated. The process of converting to a percent activity curve allowed subtracting background and adjusting for plate-to-plate variation.

[5] = system: TLR2, TLR3, TLR4/MD-2/CD14, TLR5, TLR7, TLR8, or TLR9 expressing HEK293 cells; settings: 10 μM, 20-24 h, SEAP
From the text: To identify the target receptor, we used HEK293 cells stably transfected with individual human (h) TLRs: TLR2, TLR3, TLR4/MD-2/CD14, TLR5, TLR7, TLR8, or TLR9 expressing HEK293 cells, along with an NFκB activation reporter producing secreted embryonic alkaline phosphatase (SEAP).

[6] = system: mouse bone marrow derived dendritic cells (mBMDC)
Procedure: 0.5% DMSO in saline served as a vehicle controls. The levels type I IFN were determined using L929-ISRE luciferase reporter cell line using murine IFN beta standard (FIG. 7A). IP-10 levels were determined by ELISA (FIG. 7B). Data shown are mean±SEM of triplicates in representative of two independent experiments showing similar results. * denotes p<0.05 was considered as significant compared to vehicle using one way ANOVA with Dunnett's post hoc testing.
L929 cells stably expressing an interferon sensitive response element (ISRE) luciferase reporter construct were kindly provided by Dr. B. Beutler (UT Southwestern, Texas). […] The bioactivity of type I IFN in mBMDC supernatants was measured by luciferase assay using L929-ISRE cells as described previously. […] Thus, 50 μL of μBMDC supernatant was incubated with L929-ISRE cells in 50 μL of DMEM for 6 h. Mu-IFN Beta Standard (PBL Interferon Source, Piscataway, N.J.) was used as a standard. The luciferase activities were measured by Steady-Glo luciferase assay buffer (Promega, Madison, Wis.).

[7] = system: mouse bone marrow derived dendritic cells (mBMDC); assay: IP-10 induction in mBMDC (ELISA), surrogate marker of type I IFN; format: cell-based; settings: relative to Cmpd 1
Procedure: In addition to the production of inflammatory cytokines (IL-6, IL-12, TNFα, etc.) mediated by NFκB activation, TLR4 signaling can result in the production of type I interferons, a feature that is not only important for activation of dendritic cells leading to good adjuvant activity, but would also be important for rapid defense against a variety of pathogens, particularly viruses. […] To determine the relative ability of all compounds to induce the production of type 1 IFN, each was evaluated in mouse bone marrow derived dendritic cells as shown in Tables 1-3.
as §3
In addition, the levels of IP-10, a surrogate marker of type I IFN, in the supernatants were determined by ELISA (R&D Systems, Minneapolis, Minn.).

[8] = Oral bioavailability in mice (serum LC/MS); format: in vivo; settings: mouse, C57BL/6 mice, 1 μmol oral vs 500 nmol i.v., AUC method
Procedure: FIG. 14 depicts time course showing that Cmpd 42 is orally bioavailable in mice. C57BL/6 mice were intravenously (500 nmol) or orally (1 μmol) administered with Cmpd 42. Sera were collected at the indicated time point and concentration of the compound were measured by LC/MS. Legend: oral administration, closed circle; i.v. administration, closed box. X-axis: time (min). Y-axis: concentration of Cmpd 42 (nM).
To test oral bioavailability, Cmpd 42 was orally or intravenously administered to C57BL/6 mice and the drug concentration in sera was measured. Results are depicted in FIG. 14.

mBMDC = assay: MTT viability assay in mBMDC; settings: 18 h, concentrations up to 10 μM
Procedure: Cytotoxicity of the compounds was evaluated by MTT assay as a measure of viability. mBMDC (10^5/well) were incubated with graded concentrations of the compounds for 18 h and compared with vehicle (0.5% DMSO) and MPLA (1 μg/mL). […] (FIG. 6B) The cells were lysed after the overnight incubation with MTT reagents, and absorbance at 570 nm was measured, subtracting the reference absorbance at 650 nm. Data shown are mean±SEM of triplicates and are representative of two independent experiments showing similar results.

C57BL/6 mice [9] = settings: in vivo
C57BL/6 mice [10] = assay: Protection from LPS/galactosamine-induced lethal liver injury; format: in vivo, mouse
Procedure: FIGS. 11A-11B depict that administration of Cmpd 42 and Cmpd 33 protects hosts from LPS-induced lethal liver injury. FIG. 11A: Schematic showing that C57BL/6 mice were intraperitoneously injected with 500 nmol Cmpd. 42 (n=11) or Cmpd 33 (n=11). 40 μg MPLA (n=9) and vehicle (n=9) were used as positive and negative controls, respectively. Next day, mice were challenged with LPS (0.2 μg/animal) and galactosamine (12 mg/animal). FIG. 11B: Histogram showing results of sera collected 1.5 h post challenge and measured for TNFα. *:p<0.05 compared to vehicle treated mice.
Lipopolysaccharide (LPS), a TLR4 ligand, causes severe lethal liver injury when administered with galactosamine. Pretreatment of mice with MPLA is known to improve the survival in this model. To study whether Cmpd 42 and Cmpd 33 are able to act as immunomodulatory agents similar to MPLA, the mice were treated with Cmpd 42 or Cmpd 33 and challenged with LPS/galatosamine the next day, as depicted in FIG. 11A. Over 80% of Cmpd 42 and 100% of Cmpd 33-treated mice survived.

[11] = WT vs Cd14-/- mBMDC, 3.7 μM overnight

In the case of `O=C(CSc1nc2c([nH]c3ccccc32)c(=O)n1-c1ccccc1)NC1CCCCC1` [Compound 1, N-cyclohexyl-2-((4-oxo-3-phenyl-4,5-dihydro-3H-pyrimido[5,4-b]indol-2-yl)thio)acetamide], the “IL-6 released by mBMDC cultures (average, SD)” value ([1]; 5 μM Cmpd 1) is reported as 10.5 ng/mL, the “IL-6 secretion in TLR4 deficient vs wild-type mBMDC” value ([1]; 10 μM, 18 h) is reported as “completely abrogated” and the “CD14 dependence of IL-6 production” value [1, 11] is reported as “not dependent on CD14; also recorded: retains IL-6 activity”. For the same molecule, the IP-10 production [2] was “dose-dependent response”, the “IP-10 production in mBMDC (in words)” value [2] was “high IP-10 production” and the “IP-10 released by mBMDC cultures (average)” value [2] was 590.0 ± 10.5 pg/mL. The “IL-8 released by hPBMC cultures (average, SD)” value [3] was 7.8 ± 0.8 ng/mL, the “mouse TLR4 reporter cell activation (in words)” value (mouse TLR4) was “dose-dependent activation” and the “relative reporter activation, murine TLR4 cells” value (mouse TLR4; 5 μM Cmpd 1) was 1.52±0.03. The “mouse TLR4, area under curve (AUC) values normalized to Cmpd 1” value (mouse TLR4) was 100, the “human TLR4 reporter cell activation (in words)” value (human TLR4) was “dose-dependent activation” and the “OD630 of human TLR4 reporter cells” value (human TLR4; 10 μM Cmpd 1) was 0.88. For the same molecule, the “human TLR4, values normalized to Cmpd 1” value (human TLR4) was 100, the “IL-6 activity in mBMDC (in words)” value [4] was “the most active; also recorded: high IL-6” and the “TLR selectivity among TLR transfected HEK293 reporter cells” value [5] was “only those expressing TLR4/MD-2/CD14 responded”. For the same molecule, the “CD14 dependence of type I IFN production” value [6, 11] was “not dependent on CD14” and the “type I IFN production” value ([6]; graded doses, mBMDC overnight) was “dose-dependent response”.

In the case of `Cn1c2ccccc2c2nc(SCC(=O)NC3CCCCC3)n(-c3ccccc3)c(=O)c21` [Compound 42, N-cyclohexyl-2-((5-methyl-4-oxo-3-phenyl-4,5-dihydro-3H-pyrimido[5,4-b]indol-2-yl)thio)acetamide], the “IL-6 secretion in MyD88 null dendritic cells” value ([1]; 5 μM overnight, vs C57BL/6 WT) is reported as “significantly impaired”, the “IP-10 production in mBMDC (in words)” value [7] is reported as “high IP-10 production” and the bioavailability [8] is reported as ~15%. For the same molecule, the “IP-10 induction in LPS mutant (Trif lps/lps) cells” value ([2]; 5 μM overnight, vs C57BL/6 WT) was “significantly decreased”, the “cell viability (MTT)” value (mBMDC) was “did not reduce cell viability” and the “mouse TLR4, area under curve (AUC) values normalized to Cmpd 1” value (mouse TLR4) was 100. The mice survived (C57BL/6 mice [9]; C57BL/6, mouse) was 100%, the “maximum tolerated dose relative to MPLA” value (C57BL/6 mice [9]; mouse) was > 10 times and the “serum TNFα” value (C57BL/6 mice [9]; mouse) was “significantly lower level”. The “human TLR4, values normalized to Cmpd 1” value (human TLR4) was 92, the “IL-6 activity in mBMDC (in words)” value [4] was “high IL-6” and the “serum TNFα” value (C57BL/6 mice [10]; […] post challenge, compared to vehicle treated mice) was “significantly lower level”. For the same molecule, the mice survived (C57BL/6 mice [10]; i.p. pretreatment 500 nmol, LPS/galactosamine challenge next day) was “Over 80%” and the Survival (C57BL/6 mice [10]; i.p. pretreatment (500 nmol Cmpd, 40 μg MPLA), next day LPS 0.2 μg + galactosamine 12 mg per animal, survivors/treated) was 9/11.

In the case of `N#CCn1c2ccccc2c2nc(SCC(=O)NC3CCCCC3)n(-c3ccccc3)c(=O)c21` [Compound 51, 2-((5-(cyanomethyl)-4-oxo-3-phenyl-4,5-dihydro-3H-pyrimido[5,4-b]indol-2-yl)thio)-N-cyclohexylacetamide], the “cell viability (MTT)” value (mBMDC) is reported as “did not reduce cell viability”, the “mouse TLR4, area under curve (AUC) values normalized to Cmpd 1” value (mouse TLR4) is reported as 55 and the “human TLR4, values normalized to Cmpd 1” value (human TLR4) is reported as 19.
